Assay results: US7262151B2, “Methods and compositions for production of lipo-chito oligosaccharides by rhizobacteria” (McGill University, priority 2001, dated 2007)

Assays:
[1] = system: Bradyrhizobium japonicum USDA 3; assay: LCO production by wild type USDA3 (XAD resin extraction, HPLC); format: cell-based; settings: for production of LCOs, in words: at optimum concentrations
Description: Bradyrhizobium japonicum (strain USDA 3) was grown at 28° C. in yeast extract mannitol medium (YEM) (mannitol 10 g, K2HPO4 0.5 g, MgSO4.7H2O 0.2 g, NaCl 0.1 g, yeast extract 0.4 g, and distilled water 1000 ml), pH 6.8, shaken at 150 rpm until the OD620 reached 0.4-0.6 (4-6 d) in the dark. Thereafter, 2.0 l of bacterial subculture was started by inoculating with material from the first culture (5 ml of the first culture per 250 ml of YEM media), until the OD620 reached to 0.2-0.4. At this stage, methyl jasmonate, jasmonic acid and genistein were added to culture so that the final concentraton for methyl jasmonate and jasmonic acid was 5, 10, 25, 50 and 100 μM and 5 μM for genistein. The culture was incubated for 48-96 h and the LCO extracted according to the following procedure.
The LCO from the induced bacterial culture was isolated with XAD resins. Before using XAD resins for extraction, they were first conditioned. Each 40 grams of XAD resins were first washed two times with 20 mL acetone after conditioning for 15 minutes. This was followed by two washes of 20 mL methanol when the resins were conditioned for 15 minutes. Finally, the XAD resins were conditioned (5 min) and washed with 20 mL dd. water two times. The conditioned resins were placed in the refrigerator at 4° C. until use.
For each one liter of bacterial culture, 40 grams of resin was added to the flask and these were shaken together overnight at 150 rpm. The culture along with the resin was poured through a funnel into a flask fitted with a course brass mesh (fine enough to allow the culture go quickly through and filter out the resin without any loss). At this stage, the resins are washed with water. In order to extract LCO from the resin, the XAD resin was passed through a vacuum filtration system. The fritted glass base of the system was fitted with Whatman #1 paper disk with the objective to keep the solvent with the bead until vacuum is applied. The resin beads were washed two times with 40 mL methanol after conditioning for 5 minutes. […]

B. japonicum USDA 110 = assay: LCO production by B. japonicum USDA 110 (butanol extraction, HPLC); format: cell-based, Bradyrhizobium japonicum
Description: Cultures of B. japonicum (strain USDA 110) were grown at 28° C. in 600 ml of sterile yeast mannitol medium (YEM) at pH 6.8. The culture was shaken at 150 rpm until an OD620 of 0.4 to 0.6 was achieved (4 to 6 days). When the culture reached this stage, it was divided equally into four flasks (150 mL) and specific concentrations of JA and genistein were added to the cultures.
One hundred and fifty mL of each culture were extracted with 40 mL of the HPLC-grade butanol (Fisher Science Ltd., 112 Colonnade Road, Nepean, ON, Canada) by shaking together for 5 minutes. The two phases were then allowed to separate by leaving the mixture to stand overnight. The upper layer (butanol) was collected with a glass pipette and 25 mL were placed in a 250 ml evaporation flask. LCO extract solutions were stored at 4° C. until evaporation. This step was conducted at 80° C. with a Yamato RE 500 Rotary Evaporator (Yamato Scientific American Inc., Orangeburge, N.Y., USA). The butanol phase was evaporated down to 2 to 3 mL. The resulting light brown material was dissolved in 4 ml of 18% acetonitrile and stored in the dark at 4° C. in a glass tube sealed with parafilm.
For HPLC analysis we used a Vydac C18 reversed—phase column (VYDAC, Hesperia, Calif., USA) with a flow rate of 1.0 mL/min and a Vydac guard column (VYDAC, Hesperia, Calif., USA). We used at least 10 min. of isocratic run with 18% acetonitrile (AcN/H2O; w/w) to establish a baseline. The baseline value was always about 0.010. When a sample was loaded we conducted an isocratic elution with 18% AcN for 45 min. This step removed all non-polar light fractions. We then applied a gradient elution (18 to 82% AcN) for 70 min. LCOs begin to appear at 84 to 86 min of HPLC run time. We used B. japonicum Nod factor (BjV (C18:1, MeFuc)) obtained from G. Stacey (University of Tennessee, Knoxville, Tenn.) as a standard. The identity of the LCO was confirmed by the Complex Carbohydrate Research Center at the University of Georgia with FAB-MS and MALDI-TOF spectrometry analysis.
There were two experiments conducted. In the first the treatments consisted of factorial combinations of two concentrations (0 and 20 μM) of two signal materials (JA and genistein (zhang and Smith, 1995)). The experiment was organized following a randomized complete block design with three blocks. In experiment 1, two temperatures were used (17 and 25° C.). […]
Each of the above experiments was conducted two times and the experimental results were pooled and analyzed statistically by analysis of variance using the Statistical Analysis System computer package (SAS Institute Inc. 1980). […] Since the effects of temperature on growth were very large, the data from two temperatures used in the first experiment were analyzed separately.

SMILES | LCO production compared with optimum genistein concentration (5 μM) ([1]; 100 μM) | production of LCOs, in words [1] | effect on LCO production, in words (B. japonicum USDA 110; 25° C., genistein present) | effect on LCO production, in words (B. japonicum USDA 110; JA alone, without genistein, either temperature) | effect on LCO production, in words (B. japonicum USDA 110; low temperature (17° C.), genistein present) | peak-time for LCO production (B. japonicum USDA 110; after genistein was added to the cell culture) [h]
CC/C=C\CC1C(=O)CCC1CC(=O)OC (stereo not shown) [MeJA, methyl jasmonate] | substantially more LCO | induced the production of LCOs | – | – | – | –
CC/C=C\C[C@H]1C(=O)CC[C@@H]1CC(=O)O [JA, [1R-[1α,2β(Z)]]-3-oxo-2-(pentenyl)cyclopentaneacetic acid] | – | induced the production of LCOs | not at 25 °C | can not promote LCO production | can improve LCO production | –
O=c1c(-c2ccc(O)cc2)coc2cc(O)cc(O)c12 [GEN, 5,7,4′-trihydroxyisoflavone] | – | – | – | – | – | 8 to 10
